Results reported in patent US11446285B2, “Methods for treating systemic lupus erythematosus” (University of Southern California, priority 2017, dated 2022).
“Also recorded” adds a separate entry of the source.

What was measured:
Format in all cases: in vivo
MRL-lpr mice [1] = test: Face rash scores in MRL-lpr mouse model of SLE; conditions: scored 19, 25, 30, 37 and 40 days after start of treatment, A(1-7) 0.5 mg/kg, Compound 7 2 mg/kg s.c. daily, compared to saline treated MRL-lpr mice
Description: Face rash scores. Mice were monitored daily for skin lesions. Scores of lesions of the face were taken 19, 25, 30, 37 and 40 days after the start of treatment; pictures were taken at different time points throughout the study. Face rash scores were based on location and extent of inflammation and hair loss as follows: 0, no noticeable irritation; 1, little redness, no hair loss or inflammation; 2, minimal rash, little hair loss or inflammation; 3, moderate rash, increased hair loss, light inflammation; 4, pronounced rash, near total hair loss and obvious inflammation; 5, rash is spreading up to the top of the face; 6, obvious wound above nose.
(§1) Our study uses the MRL/MpJ-Fas^lpr/J (MRL-lpr) as a mouse model of SLE and MRL/MpJ mice as controls (control mice do develop SLE but at a much later stage in life). These mice were broken into 4 groups that received once daily subcutaneous injections of treatment starting at 8 weeks of age for 6 weeks: a MRL/MpJ group (n=5) dosed daily with saline, an MRL-lpr group (n=8) dosed with saline, an MRL/MpJ group (n=8) dosed with 0.5 mg/kg of A(1-7), and an MRL/MpJ group (n=8) dosed with 2 mg/kg of Compound 7 (in an aqueous Tween 20 formulation). Throughout the study, the mice were monitored for proteinuria and face lesions. At necropsy, the kidneys and peripheral blood were harvested. The kidneys sections were stained with hematoxylin & eosin (H&E) for evaluation of glomerular health. Blood samples were processed and the plasma was stored at −20° C. for measurement of anti-dsDNA antibodies.

MRL-lpr mice [2] = test: Protein urine scores in MRL-lpr mouse model of SLE; conditions: once daily s.c. for 6 weeks from 8 weeks of age, A(1-7) 0.5 mg/kg, Compound 7 2 mg/kg, compared to saline treated MRL-lpr mice
Experimental: Protein urine scores. At necropsy a final measurement or proteinuria was done using Urinalysis Reagent Strips (Mountainside Medical Equipment; Marcy, N.Y.). Protein scores signify the level of protein measured in the urine of each mouse and are scored as; 1-15 mg/dl protein, 2-30 mg/dl protein, 3-100 mg/dl protein and 4-300 mg/dl protein.
as §1

MRL-lpr mice [3] = test: Glomerulonephritis scores (H&E kidney sections) in MRL-lpr mouse model of SLE; conditions: once daily s.c. for 6 weeks, A(1-7) 0.5 mg/kg, Compound 7 2 mg/kg, compared to saline treated MRL-lpr mice
Experimental: Glomerulonephritis scores. Twenty glomeruli from kidney sections stained with H&E were scored for each mouse and a mean score was calculated. The glomerulonephritis score was based on a previously published score of 0-4 based on histopathological changes^6. The scores were defined as: 0, kidney without glomerular lesions; 1, minimal thickening of the mesangium; 2, noticeable increase in both mesangial and glomerular capillary cellularity; 3, preceding conditions, along with superimposed inflammatory exudates and capsular adhesions; 4, obliteration of the glomerular architecture included >70% of glomeruli.
as §1, with “Blood samples were processed and the plasma was stored at −20° C. for measurement of anti-dsDNA antibodies.” left out

MRL-lpr mice [4] = test: Anti-dsDNA IgG titers in plasma (ELISA) in MRL-lpr mouse model of SLE; conditions: plasma at necropsy after 6 weeks of treatment, A(1-7) 0.5 mg/kg, Compound 7 2 mg/kg s.c. daily, compared to saline treated MRL-lpr mice
Experimental: Anti-dsDNA IgG titers. Peripheral blood was collected at necropsy by cardiac puncture with a 1 mL syringe fitted with a 22G needle, transferred into 2 ml K3E K3EDTA VACUETTE® tubes, and stored on ice. The tubes were then spun at 1,500 RPM for 15 min at 4° C. The plasma (top layer) was collected and stored at −20° C. The plasma was then diluted at 1:100 and used in a Mouse Anti-DNA IgG Antibody ELISA Kits (Chondrex Inc, Redmond, Wash.). The average concentration of duplicate samples was calculated against a standard curve and averaged for each mouse.
as §1, with “Blood samples were processed and the plasma was stored at −20° C. for measurement of anti-dsDNA antibodies.” left out

MRL-lpr mice [5] = test: Lymph node weights (inguinal and axillary) in MRL-lpr mouse model of SLE; conditions: 6 weeks of treatment, A(1-7) 0.5 mg/kg, Compound 7 2 mg/kg s.c. daily, compared to saline treated MRL-lpr mice
Description: Lymph node weights. At necropsy, inguinal and axillary lymph nodes were dissected and trimmed of any surrounding fatty tissues. They were then weighed using an Adventurer precision balance (Ohaus Corporation, Parsippany, N.J.).
as §1

Row | Molecule | face rash score (inflammation and hair loss) (MRL-lpr mice [1]) | protein urine score (proteinuria) at final measurement (MRL-lpr mice [2]) | glomerulonephritis score (glomerular pathologies) (MRL-lpr mice [3]) | concentration of circulating anti-dsDNA IgG antibodies in plasma (MRL-lpr mice [4]) | inguinal and axillary lymph node weight (size) at necropsy (MRL-lpr mice [5]) | face rash score (inflammation and hair loss) (MRL-lpr mice [1]; listed as compound 7)
1 | Asp-Arg-Val-Tyr-Ile-His-Pro (DRVYIHP) [A(1-7), endogenous Mas receptor ligand angiotensin 1-7] | significantly less overall pathologies; also recorded: significantly lower score than the saline treated MRL-lrp mice throughout the study | significantly lower protein scores | significantly reduced the glomerular pathologies | significantly lower levels of circulating IgG antibodies against dsDNA; also recorded: significantly lower concentrations | reduced the size of both lymph nodes; also recorded: significantly smaller | 
2 | CCCCOC(=O)NS(=O)(=O)c1ccc(OC(F)(F)F)cc1-c1ccc(Cn2ccnc2)cn1 [Compound 7] | significantly lower only at day 19 and 37 | significantly lower protein scores | significantly reduced the glomerular pathologies | significantly lower levels of circulating IgG antibodies against dsDNA; also recorded: significantly lower concentrations | reduced the size of both lymph nodes; also recorded: reduced the size but not significantly | significantly less overall pathologies
